One test addresses T1, human SPR (Homo sapiens (Human), UniProt P35270). The test is described as follows: Evaluation Example 1: Measurement of human SPR inhibitory activity (sepiapterin absorbance at 420 nm). Format: biochemical. Conditions: 240 minutes at room temperature. As for the experimental part:
Human SPR was prepared as described below. The full-length human SPR (1-261) cDNA was purchased from Eurofins Genomics as an artificially synthesized plasmid containing a DNA sequence optimized for the E. coli expression system so that the sequence of the expressed protein after transcription and translation matches the sequence described in UniprotKB (P35270).
Linearized insert and vector were prepared by PCR using primers designed for amplification of human SPR cDNA and primers designed to contain the thrombin recognition sequence of pET28a (Novagen) and a polyhistidine tag. Cloning was performed using In-Fusion (registered trademark) HD Cloning Kit (TaKaRa) to thereby construct a human SPR expression plasmid. The resultant human SPR expression plasmid was transformed into BL21 (DE3) competent cells (INVITROGEN).
The cells were inoculated into LB medium (1% triptone, 0.5% yeast extract, 1% sodium chloride) containing […] of kanamycin, and then precultured at 37° C. overnight. The precultured cells were inoculated into TB medium (1.2% triptone, 2.4% yeast extract, 9.4% dipotassium hydrogen phosphate, 2.2% potassium dihydrogen phosphate, 0.8% glycerin) containing […] of kanamycin, and the cultured at 37° C., to thereby induce SPR expression with 0.5 mM IPTG for four hours. After the induction, the cells were collected by centrifugation at 6,000 G for 30 minutes and washed with PBS, and the washing was discarded. The washed cells were suspended in buffer solution A (20 mM MES, pH 6.5, 100 mM sodium chloride, 1 mM DTT, 5 mM imidazole). Subsequently, the cell suspension was subjected to ultrasonic treatment to thereby homogenize the cells. The cell homogenate was clarified by centrifugation at 30,000 G for 60 minutes and then filtered with a […]. The filtrate was allowed to pass through HisTrapFF 5 mL column (GE Healthcare). The resin was washed with buffer A, and then gradient elution was performed with buffer B (20 mM MES, pH 6.5, 100 mM sodium chloride, 1 mM DTT, 500 mM imidazole). Thrombin was added to a fraction containing the SPR protein, and the mixture was dialyzed in buffer A overnight, to thereby cleave the tag. After removal of the thrombin by with Benzamidine Sepharose 4 FF (GE Healthcare), the resultant product was allowed to pass through the HisTrapFF 5 mL column, to thereby remove the tag, followed by concentration with Amicon Ultra 10,000 NMWL (Merck Millipore). The concentrate was purified by gel filtration using HiLoad 16/60 Superdex 75 pg (GE Healthcare) equilibrated with buffer C (20 mM MES, pH 6.5, 100 mM sodium chloride, 1 mM DTT). The fraction containing SPR protein was concentrated and then cryopreserved at −80° C.
Human SPR inhibitory activity was measured by using a 384-well low adsorption clear plate (Greiner) with buffer D containing 100 mM Tris-HCl (pH 7.5) (Thermo Fisher Scientific) and 0.01% bovine serum albumin (Sigma). A compound was diluted with DMSO to a concentration of 1 mM, and a 1 μL aliquot of the preparation was diluted with 250 μL of buffer D. The thus-diluted compound was dispensed into the 384-well plate at […]. Thereafter, human SPR was diluted with buffer D to 200 ng/mL and then dispensed into the 384-well plate at 20 μL/well. Subsequently, 40 μL of ultrapure water containing 120 μM Sepiapterin (WuXi AppTec) and 120 μM NADPH (Nacalai) was added to each well, and mixed with a vortex mixer, to thereby initiate the reaction. The reaction mixture was incubated at room temperature for 240 minutes, and the reaction was terminated by addition of 10 μL of ultrapure water containing 2% formic acid (Nacalai). In order to determine the amount of sepiapterin after termination of the reaction, the absorbance at 420 nm was measured by applying the 384-well plate to EnSpire multimode plate reader (Perkin Elmer). The percent inhibition (%) of human SPR by the test compound was calculated by the following formula. […]
T1 sequence (P35270 whole entry): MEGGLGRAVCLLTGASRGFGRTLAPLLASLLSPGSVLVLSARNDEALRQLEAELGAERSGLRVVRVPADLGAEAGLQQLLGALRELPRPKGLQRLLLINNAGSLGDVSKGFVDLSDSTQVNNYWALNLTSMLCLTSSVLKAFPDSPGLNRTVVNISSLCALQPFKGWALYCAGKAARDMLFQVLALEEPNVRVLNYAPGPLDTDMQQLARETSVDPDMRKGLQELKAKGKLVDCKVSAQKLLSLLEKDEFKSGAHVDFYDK
Regarding `CCOC(=O)c1cnn2c(O)c(C(=O)NC3CC3)c(=O)n(CC(C)C)c12` [Synthesis Example 5, Ethyl 6-(cyclopropylcarbamoyl)-7-hydroxy-4-isobutyl-5-oxo-4,5-dihydropyrazolo[1,5-a]pyrimidine-3-carboxylate], the IC50 is less than 1000 nM.
On the same count and under the same terms, to `CC1(Cn2c(=O)c(C(=O)NC3CCC3)c(O)n3nc(Br)cc23)CCOCC1` [Synthesis Example 30, 2-Bromo-N-cyclobutyl-7-hydroxy-4-((4-methyltetrahydro-2H-pyran-4-yl)methyl)-5-oxo-4,5-dihydropyrazolo[1,5-a]pyrimidine-6-carboxamide] belongs less than 1000 nM; to `CC(C)(C)Cn1c(=O)c(C(=O)NC2CC2)c(O)n2nc(C(=O)O)cc12` [Synthesis Example 2, 6-(Cyclopropylcarbamoyl)-7-hydroxy-4-neopentyl-5-oxo-4,5-dihydropyrazolo[1,5-a]pyrimidine-2-carboxylic acid], less than 1000 nM.

The target in another test is T1, human SPR. Kind of test: Evaluation Example 2: Measurement of human SPR inhibitory activity (seven concentrations, sepiapterin absorbance at 420 nm). The format is biochemical. The following applies: Evaluation Example 2, seven concentrations 0.14 nM to 100 nM, 240 minutes at room temperature, read-out: IC50. The procedure, abridged:
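Reactions ran 240 min at room temperature in 100 mM Tris-HCl pH 7.5 with 0.01% BSA. They contained tag-cleaved, E. coli-expressed full-length human SPR (diluted to 150 ng/mL), seven compound concentrations from 0.14 to 100 nM, and sepiapterin/NADPH added as a 120 μM/160 μM solution. Inhibition was calculated from sepiapterin absorbance at 420 nm.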
Regarding `CC(C)Cn1c(=O)c(C(=O)NC2CC2)c(O)n2ncc(C(=O)NCc3ncccn3)c12` [Synthesis Example 231, N6-Cyclopropyl-7-hydroxy-4-isobutyl-5-oxo-N3-(pyrimidin-2-ylmethyl)-4,5-dihydropyrazolo[1,5-a]pyrimidine-3,6-dicarboxamide], the IC50 worked out at 0.65 nM.
On the same count and under the same terms, to `CC(C)(C)Cn1c(=O)c(C(=O)NC2CC2)c(O)n2nc(-c3cccnc3C(F)(F)F)cc12` [Synthesis Example 284, N-Cyclopropyl-7-hydroxy-4-neopentyl-5-oxo-2-(2-(trifluoromethyl)pyridin-3-yl)-4,5-dihydropyrazolo[1,5-a]pyrimidine-6-carboxamide] belongs 3.93 nM; to `CC(C)Cn1c(=O)c(C(=O)NC2CC2)c(O)n2ncc(/C=C/C(=O)N3C4CCCC3COC4)c12` [compound 542, (E)-3-(3-(3-Oxa-9-azabicyclo[3.3.1]nonan-9-yl)-3-oxoprop-1-en-1-yl)-N-cyclopropyl-7-hydroxy-4-isobutyl-5-oxo-4,5-dihydropyrazolo[1,5-a]pyrimidine-6-carboxamide], 0.78 nM.
On the same count and under the same terms, to `Cc1nn2c(O)c(C(=O)NC3CC3)c(=O)n(CC(C)C)c2c1/C=C/C(=O)N1C[C@H](C)OC[C@H]1C` [Synthesis Example 646, N-Cyclopropyl-3-((E)-3-((2S,5R)-2,5-dimethylmorpholino)-3-oxoprop-1-en-1-yl)-7-hydroxy-4-isobutyl-2-methyl-5-oxo-4,5-dihydropyrazolo[1,5-a]pyrimidine-6-carboxamide] belongs 0.87 nM.
The same measure, in the same setting: then `Cc1nn2c(O)c(C(=O)NC3CC3)c(=O)n(CC(C)C)c2c1/C=C/C(=O)N1CCCC12CCCN(C)C2` (stereo not shown) [Synthesis Example 662, (E)-N-Cyclopropyl-7-hydroxy-4-isobutyl-2-methyl-3-(3-(7-methyl-1,7-diazaspiro[4.5]decan-1-yl)-3-oxoprop-1-en-1-yl)-5-oxo-4,5-dihydropyrazolo[1,5-a]pyrimidine-6-carboxamide], with 1.08 nM.
Regarding `COC[C@@H]1COCCN1C(=O)/C=C/c1cnn2c(O)c(C(=O)NC3CC3)c(=O)n(CC(C)C)c12` [compound 532, (R,E)-N-Cyclopropyl-7-hydroxy-4-isobutyl-3-(3-(3-(methoxymethyl)morpholino)-3-oxoprop-1-en-1-yl)-5-oxo-4,5-dihydropyrazolo[1,5-a]pyrimidine-6-carboxamide], the IC50 was found to be 0.55 nM.
For the compound `CC(C)Cn1c(=O)c(C(=O)NCC(F)(F)F)c(O)n2ncc(/C=C/C(=O)N3CCOCC3)c12` [compound 552, (E)-7-Hydroxy-4-isobutyl-3-(3-morpholino-3-oxoprop-1-en-1-yl)-5-oxo-N-(2,2,2-trifluoroethyl)-4,5-dihydropyrazolo[1,5-a]pyrimidine-6-carboxamide], the IC50 was determined as 0.88 nM.
Turning to `CC(C)(C)Cn1c(=O)c(C(=O)NC2CC2)c(O)n2nc(Nc3cncc(C#N)n3)cc12` [Synthesis Example 324, 2-((6-Cyanopyrazin-2-yl)amino)-N-cyclopropyl-7-hydroxy-4-neopentyl-5-oxo-4,5-dihydropyrazolo[1,5-a]pyrimidine-6-carboxamide], the IC50 was found to be 1.61 nM.
Still for that read-out and setting: to `Cn1ccnc1Nc1cc2n(CC(C)(C)C)c(=O)c(C(=O)NC3CC3)c(O)n2n1` [Synthesis Example 357, N-Cyclopropyl-7-hydroxy-2-((1-methyl-1H-imidazol-2-yl)amino)-4-neopentyl-5-oxo-4,5-dihydropyrazolo[1,5-a]pyrimidine-6-carboxamide] belongs 1.5 nM; to `COc1ccc2c(n1)nn1c(O)c(C(=O)NC3CC3)c(=O)n(CC(C)(C)C)c21` [Synthesis Example 393, N-Cyclopropyl-4-hydroxy-8-methoxy-1-neopentyl-2-oxo-1,2-dihydropyrido[2′,3′:3,4]pyrazolo[1,5-a]pyrimidine-3-carboxamide], 1.38 nM.
`CC(C)Cn1c(=O)c(C(=O)NC2CC2)c(O)n2ncc(/C=C/C(=O)N3CCC(C(F)F)C3)c12` (racemic) [compound 596, (E)-N-Cyclopropyl-3-(3-(3-(difluoromethyl)pyrrolidin-1-yl)-3-oxoprop-1-en-1-yl)-7-hydroxy-4-isobutyl-5-oxo-4,5-dihydropyrazolo[1,5-a]pyrimidine-6-carboxamide (racemate)]: the IC50 came out at 0.96 nM.
Take `CC(C)(C)Cn1c(=O)c(C(=O)NC2CC2)c(O)n2nc3c(c12)COC(=O)N3` [Synthesis Example 400, N-Cyclopropyl-8-hydroxy-5-neopentyl-2,6-dioxo-1,2,5,6-tetrahydro-4H-pyrimido[1′,2′:1,5]pyrazolo[3,4-d][1,3]oxazine-7-carboxamide]: the IC50 was 0.7 nM.
Same read-out and setting: then `CC(C)(C)Cn1c(=O)c(C(=O)NC2CC2)c(O)n2nc3c(c12)CCN3CC(F)(F)F` [Synthesis Example 398, N-Cyclopropyl-7-hydroxy-4-neopentyl-5-oxo-1-(2,2,2-trifluoroethyl)-2,3,4,5-tetrahydro-1H-pyrrolo[2′,3′:3,4]pyrazolo[1,5-a]pyrimidine-6-carboxamide], with 6.08 nM; and `CC(C)Cn1c(=O)c(C(=O)NC2CC2)c(O)n2ncc(/C=C/C(=O)N3[C@H](C)CCC[C@@H]3C)c12` [compound 597, N-Cyclopropyl-3-((E)-3-(cis-2,6-dimethylpiperidin-1-yl)-3-oxoprop-1-en-1-yl)-7-hydroxy-4-isobutyl-5-oxo-4,5-dihydropyrazolo[1,5-a]pyrimidine-6-carboxamide], with 1.62 nM.
`CC(C)(C)Cn1c(=O)c(C(=O)NC2CC2)c(O)n2nc(Nc3cnc(C(=O)N4CCOCC4)cn3)cc12` [Synthesis Example 335, N-Cyclopropyl-7-hydroxy-2-((5-(morpholine-4-carbonyl)pyrazin-2-yl)amino)-4-neopentyl-5-oxo-4,5-dihydropyrazolo[1,5-a]pyrimidine-6-carboxamide]: the IC50 was 0.73 nM.

The same test, now with this note: sepiapterin absorbance, Table 41, read-out: concentration at 50% inhibition of human SPR (IC50).
Turning to `CC(C)Cn1c(=O)c(C(=O)NC2CC2)c(O)n2ncc(/C=C/C(=O)N3C[C@H](C)OC[C@H]3C)c12` [Synthesis Example 718, N-Cyclopropyl-3-((E)-3-((2S,5R)-2,5-dimethylmorpholino)-3-oxoprop-1-en-1-yl)-7-hydroxy-4-isobutyl-5-oxo-4,5-dihydropyrazolo[1,5-a]pyrimidine-6-carboxamide], the IC50 came to 0.74 nM.

These data come from patent publication US20240092784A1, “CONDENSED HETEROCYCLIC COMPOUND” (NISSAN CHEMICAL CORPORATION, priority 2020, published 2024).
